Data as given in patent publication US12377083B2 (WUHAN LL SCIENCE AND TECHNOLOGY DEVELOPMENT CO., LTD., priority 2019, dated 2025).

How the values were obtained:
Type in all cases: cell-based
[1] = In vitro cytotoxicity assay in HepG2 cells, CCK-8 method; conditions: human
Experimental: In vitro cytotoxicity assay for the compounds disclosed herein was performed in HepG2 cells using the CCK-8 method. HepG2 cells (Beina Bio) in the logarithmic growth phase were collected, the concentration of cell suspension was adjusted, and then the cells were plated on a 96-well cell culture plate at 50,000 cells/well. The cells were then incubated overnight in a cell incubator (5% CO2, 37° C.), and after 80-90% cell confluence was achieved, test compounds or vehicle (DMSO) at various concentration gradients were added after medium change. The resulting mixture was incubated in the cell incubator (5% CO2, 37° C.) for 48 h. After the treatment, the medium in the plate was discarded. The plate was washed twice with PBS, added with CCK-8 working solution (Beyotime) at 100 μL per well, and then incubated at 37° C. for 1.5 h away from the light. Absorbance at OD450 nm was measured for each well on a microplate reader, and CC50 value of each compound was analyzed and calculated.

[2] = target: hLPAR1 (human lysophosphatidic acid receptor 1) (Homo sapiens, UniProt Q92633); test: FLIPR assay of intracellular calcium increase induced by activation of hLPAR1 expressed in CHO-K1 cells; conditions: CHO-K1 cells expressing hLPAR1, agonist oleoyl-L-α-lysophosphatidic acid 1 μM; read-out: LPAR1 IC50
Experimental: The antagonist property of the compounds disclosed herein was determined using the FLIPR (fluorescence imaging plate reader) method, wherein the compounds are inhibitors for the intracellular calcium increase induced by activation of hLPAR1 (human lysophosphatidic acid receptor 1, accession No. NM_001401.4) expressed in CHO-K1 cells (Chinese hamster ovary cells K1, ATCC).
Cells at 250,000 cells/mL were seeded into a 96-well plate (25,000 cells/well) 18-24 h prior to the FLIPR experiment and then incubated overnight in a cell incubator. […] Each well was added with 75 μL of […] Fluo-4 AM fluorescent dye (Thermo, F14202) and then the cells were subjected to dye-loading incubation at 37° C. for 1.0 h. The 96-well plate was then washed once with buffer, added with a buffer containing a test compound or a vehicle at 50 μL per well and then incubated for 30 min at room temperature. […] An agonist (oleoyl-L-α-lysophosphatidic acid sodium salt (Sigma, L7260)) at a final concentration of 1 μM or a vehicle (ultrapure water) was then added at 50 μL/well, fluorescence values were measured for 2 min at 1-second intervals, and finally the output fluorescence counts were analyzed.

[3] = system: A2058 (human melanoma cells); test: A2058 cell scratch (migration) assay with LPA; conditions: 10 μM LPA, scratch area at 24 h
Experimental: The activity of the compounds disclosed herein at the cell level in vitro is evaluated by A2058 (human melanoma cells, Beina Bio, BNCC341099) cell scratch assay. The inhibitory activity of the compounds against LPAR1 can be reflected by inhibition of cell scratch healing.
After the cell confluence reached 80%, the cell culture plate was taken out and the original medium was discarded. Serum-free medium was then added, and the cells were starved overnight in an incubator (37° C., 5% CO2). The cell culture plate was then taken out, and cell scratches were made along the diameter of the wells using a 200 μL pipette tip. The cell culture plate was then added with 500 μL of serum-free medium and then shaken gently to wash away the residual cells on the scratched surface, and this was repeated twice. The medium was discarded and 500 μL of 1% FBS medium containing the compound was then added, and the mixture was incubated at 37° C. for 30 min. […] Olympus CKX53 was used to observe the scratches, and MShot image analysis system was used to take pictures and measure the scratch area at 0 h. The plate was incubated in the incubator under the conditions of 37° C. and 5% CO2. 24 h later, the scratches were observed again with Olympus CKX53, and MShot image analysis system was used to take pictures and measure the scratch area at 24 h. Cell migration inhibition rate was calculated according to the following formula: […]

Sequence of hLPAR1 (human lysophosphatidic acid receptor 1) (Q92633 whole entry): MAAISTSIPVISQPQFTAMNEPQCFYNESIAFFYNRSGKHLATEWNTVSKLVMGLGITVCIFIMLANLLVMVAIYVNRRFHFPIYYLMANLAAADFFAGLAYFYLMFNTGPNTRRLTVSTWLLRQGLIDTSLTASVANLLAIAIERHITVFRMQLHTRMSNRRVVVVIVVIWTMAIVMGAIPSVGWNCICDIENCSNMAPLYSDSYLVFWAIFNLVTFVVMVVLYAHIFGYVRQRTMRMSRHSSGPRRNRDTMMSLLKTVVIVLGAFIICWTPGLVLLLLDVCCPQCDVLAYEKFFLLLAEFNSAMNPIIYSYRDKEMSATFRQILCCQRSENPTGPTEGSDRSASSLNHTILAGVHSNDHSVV

Row | SMILES | IC50 [2] [µM] | CC50 at 48 h [1] [µM] | Cell migration inhibition rate (%) [3]
1 | Cc1nc(-c2ncoc2COC(=O)N(C)C2CCCC2)ccc1O[C@H]1CCC[C@H](C(=O)O)C1 (racemic) [Compound 26] | 0.3 to 10 | > 200 | C (C: 0-30%)
2 | CN(C(=O)OCc1ocnc1-c1ccc(O[C@H]2CCC[C@H](C(=O)O)C2)c(C(F)(F)F)n1)C1CCCC1 (racemic) [Compound 25] | 0.3 to 10 | > 200 | B (B: 30-50%)
3 | CN(C(=O)OCc1nocc1-c1ccc(O[C@H]2CCC[C@H](C(=O)O)C2)cc1)C1CCCC1 (racemic) [Compound 9, (+/−)-(1S,3S)-3-(4-(3-(((cyclopentyl(methyl)carbamoyl)oxy)methyl)isoxazol-4-yl)phenoxy)cyclohexane-1-carboxylic Acid] | 0.3 to 10 | > 200 | C (C: 0-30%)
4 | CN(C(=O)OCc1c(-c2ccc(O[C@H]3CCC[C@H](C(=O)O)C3)cc2)ncn1C)C1CCCC1 (racemic) [Compound 12, (+/−)-(1S,3S)-3-(4-(5-(((cyclopentyl(methyl)carbamoyl)oxy)methyl)-1-methyl-1H-imidazol-4-yl)phenoxy)cyclohexane-1-carboxylate] | 0.3 to 10 | > 200 | C (C: 0-30%)
5 | CN(Cc1ccccc1)C(=O)OCc1c(-c2ccc(O[C@H]3CCC[C@H](C(=O)O)C3)cc2)ncn1C (racemic) [Compound 24] | 0.3 to 10 | > 200 | C (C: 0-30%)
6 | CN(Cc1ccccc1)C(=O)OCc1nc2cc(O[C@H]3CCC[C@H](C(=O)O)C3)ccc2n1C (racemic) [Compound 22] | 0.3 to 10 | > 200 | C (C: 0-30%)
7 | Cc1nc(-c2ncn(C)c2COC(=O)N(C)C2CCCC2)ccc1O[C@H]1CCC[C@H](C(=O)O)C1 (racemic) [Compound 17, (+/−)-(1S,3S)-3-((6-(5-(((cyclopentyl(methyl)carbamoyl)oxy)methyl)-1-methyl-1H-imidazol-4-yl)-2-methylpyridin-3-yl)oxy)cyclohexane-1-carboxylic Acid] | 0.05 to 0.3 | > 200 | C (C: 0-30%)
8 | Cc1nc(-c2noc(C)c2COC(=O)N(C)C2CCCC2)ccc1O[C@H]1CCC[C@H](C(=O)O)C1 (racemic) [Compound 38] | < 0.05 | > 200 | A (A: 50-70%)
9 | CN(C(=O)OCc1c(-c2ccc(O[C@H]3CCC[C@H](C(=O)O)C3)c(Cl)n2)cnn1C)C1CCCC1 (racemic) [Compound 61, (+/−)-(1S,3S)-3-((2-chloro-6-(5-(((cyclopentyl(methyl)carbamoyl)oxy)methyl)-1-methyl-1H-pyrazol-4-yl)pyridin-3-yl)oxy)cyclohexane-1-carboxylic Acid] | < 0.05 | > 200 | A (A: 50-70%)
10 | Cc1csc(-c2ccc(O[C@H]3CCC[C@H](C(=O)O)C3)c(C)n2)c1COC(=O)N(C)C1CCCC1 (racemic) [Compound 46] | < 0.05 | > 200 | A (A: 50-70%)
11 | Cc1nc(-c2csc(C)c2COC(=O)N(C)C2CCCC2)ccc1O[C@H]1CCC[C@H](C(=O)O)C1 (racemic) [Compound 43] | < 0.05 | > 200 | A (A: 50-70%)

Second part, led by results:

Row | IC50 [2] [µM] | SMILES | CC50 at 48 h [1] [µM] | Cell migration inhibition rate (%) [3]
12 | < 0.05 | Cc1cnn(-c2ccc(O[C@H]3CCC[C@H](C(=O)O)C3)cc2)c1COC(=O)N(C)C1CCCC1 (racemic) [Compound 30, (+/−)-(1S,3S)-3-(4-(5-(((cyclopentyl(methyl)carbamoyl)oxy)methyl)-4-methyl-1H-pyrazol-1-yl)phenoxy)cyclohexanoic Acid] | > 200 | B (B: 30-50%)
13 | < 0.05 | Cc1nc(-c2c(C(F)(F)F)nn(C)c2COC(=O)N(C)C2CCCC2)ccc1O[C@H]1CCC[C@H](C(=O)O)C1 (racemic) [Compound 33] | > 200 | B (B: 30-50%)
14 | < 0.05 | Cc1nc(-c2snc(C)c2COC(=O)N(C)C2CCCC2)ccc1O[C@H]1CCC[C@H](C(=O)O)C1 (racemic) [Compound 40] | > 200 | A (A: 50-70%)
15 | < 0.05 | Cc1nc(-c2c(C#N)nn(C)c2COC(=O)N(C)C2CCCC2)ccc1O[C@@H]1CCC[C@@H](C(=O)O)C1 (racemic) [Compound 58] | > 200 | A (A: 50-70%)
16 | < 0.05 | Cc1nc(-c2cnnc(C)c2COC(=O)N(C)C2CCCC2)ccc1O[C@H]1CCC[C@H](C(=O)O)C1 (racemic) [Compound 52] | > 200 | B (B: 30-50%)
17 | < 0.05 | Cc1nc(-c2c(Cl)nn(C)c2COC(=O)N(C)C2CCCC2)ccc1O[C@H]1CCC[C@H](C(=O)O)C1 (racemic) [Compound 56, (+/−)-(1S,3S)-3-((6-(3-chloro-5-(((cyclopentyl(methyl)carbamoyl)oxy)methyl)-1-methyl-1H-pyrazol-4-yl)-2-methylpyridin-3-yl)oxy)cyclohexane-1-carboxylic Acid] | > 200 | A (A: 50-70%)
18 | < 0.05 | Cc1nc(-c2coc(C)c2COC(=O)N(C)C2CCCC2)ccc1O[C@H]1CCC[C@H](C(=O)O)C1 (racemic) [Compound 42] | > 200 | A (A: 50-70%)
19 | < 0.05 | Cc1nc(-c2c[nH]c(C)c2COC(=O)N(C)C2CCCC2)ccc1O[C@H]1CCC[C@H](C(=O)O)C1 (racemic) [Compound 41] | > 200 | B (B: 30-50%)
20 | < 0.05 | Cc1ccn(-c2ccc(O[C@H]3CCC[C@H](C(=O)O)C3)cc2)c1COC(=O)N(C)C1CCCC1 (racemic) [Compound 31] | > 200 | B (B: 30-50%)
21 | < 0.05 | COc1nc(-c2cnn(C)c2COC(=O)N(C)C2CCCC2)ccc1O[C@H]1CCC[C@H](C(=O)O)C1 (racemic) [Compound 59, (+/−)-(1S,3S)-3-((6-(5-(((cyclopentyl(methyl)carbamoyl)oxy)methyl)-1-methyl-1H-pyrazol-4-yl)-2-methoxypyridin-3-yl)oxy)cyclohexane-1-carboxylic Acid] | > 200 | B (B: 30-50%)
22 | < 0.05 | Cc1c[nH]c(-c2ccc(O[C@H]3CCC[C@H](C(=O)O)C3)c(C)n2)c1COC(=O)N(C)C1CCCC1 (racemic) [Compound 44] | > 200 | B (B: 30-50%)
23 | < 0.05 | Cc1noc(-c2ccc(O[C@H]3CCC[C@H](C(=O)O)C3)c(C(F)(F)F)n2)c1COC(=O)N(C)C1CCCC1 [Compound 37] | > 200 | A (A: 50-70%)
24 | < 0.05 | Cc1nc(-c2c(F)nn(C)c2COC(=O)N(C)C2CCCC2)ccc1O[C@H]1CCC[C@H](C(=O)O)C1 [Compound 57] | > 200 | A (A: 50-70%)
25 | < 0.05 | Cc1nnc(-c2ccc(O[C@H]3CCC[C@H](C(=O)O)C3)c(C)n2)cc1COC(=O)N(C)C1CCCC1 (racemic) [Compound 49] | > 200 | B (B: 30-50%)
